Laboratory results published in patent US20120283209A1, “ANTIBACTERIAL AMINOGLYCOSIDE ANALOGS” (Achaogen, Inc., priority 2009, published 2012).
In brackets after ≈: the same amount, converted by molar mass.

How the values were obtained:
[1] = tested on: AECO001 (E. coli ATCC25922); experiment: MIC assay, CLSI broth microdilution; format: cell-based; conditions: Escherichia coli, Mueller Hinton Broth, 35 C, 20 hours
Description: (§1) Minimum inhibitory concentrations (MIC) were determined by reference Clinical and Laboratory Standards Institute (CLSI) broth microdilution methods per M7-A7 [2006]. Quality control ranges utilizing E. coli ATCC 25922, P. aeruginosa ATCC 27853 and S. aureus ATCC 29213, and interpretive criteria for comparator agents were as published in CLSI M100-S17 [2007]. Briefly, serial two-fold dilutions of the test compounds were prepared at 2× concentration in Mueller Hinton Broth. The compound dilutions were mixed in 96-well assay plates in a 1:1 ratio with bacterial inoculum. The inoculum was prepared by suspension of a colony from an agar plate that was prepared the previous day. Bacteria were suspended in sterile saline and added to each assay plate to obtain a final concentration of 5×10^5 CFU/mL. The plates were incubated at 35 C for 20 hours in ambient air.

[2] = tested on: APAE001 (P. aeruginosa ATCC27853); experiment: MIC assay, CLSI broth microdilution; format: cell-based; conditions: Pseudomonas aeruginosa, Mueller Hinton Broth, 35 C, 20 hours
Description: as §1

| MIC [1] [µg/mL] | MIC [2] [µg/mL] | SMILES |
| --- | --- | --- |
| 1 to 16 (≈ 1.33 to 21.3 µM) | ≤ 1 | NC[C@@H]1O[C@H](O[C@H]2[C@@H](O)[C@H](O[C@@H]3[C@@H](O)[C@H](NC(=O)[C@@H](O)C(F)(F)CN)C[C@H](N)[C@H]3O[C@H]3O[C@H](CN)[C@@H](O)[C@@H](O)[C@H]3N)O[C@@H]2CO)[C@H](N)[C@@H](O)[C@@H]1O [4/3] |
| 1 to 16 (≈ 1.36 to 21.8 µM) | ≤ 1 | NC[C@@H](F)[C@H](O)C(=O)N[C@@H]1C[C@H](N)[C@@H](O[C@H]2O[C@H](CN)[C@@H](O)[C@@H](O)[C@H]2N)[C@H](O[C@@H]2O[C@H](CO)[C@@H](O[C@H]3O[C@@H](CN)[C@@H](O)[C@H](O)[C@H]3N)[C@H]2O)[C@H]1O [3/3] |
| 1 to 16 (≈ 1.37 to 21.9 µM) | ≤ 1 | NC[C@@H]1O[C@H](O[C@H]2[C@@H](O)[C@H](O[C@@H]3[C@@H](O)[C@H](NC(=O)[C@@H](O)[C@@H](O)CN)C[C@H](N)[C@H]3O[C@H]3O[C@H](CN)[C@@H](O)[C@@H](O)[C@H]3N)O[C@@H]2CO)[C@H](N)[C@@H](O)[C@@H]1O [2/3] |
| 1 to 16 (≈ 1.37 to 21.9 µM) | ≤ 1 | NC[C@@H](O)[C@H](O)C(=O)N[C@@H]1C[C@H](N)[C@@H](O[C@H]2O[C@H](CN)[C@@H](O)[C@@H](O)[C@H]2N)[C@H](O[C@@H]2O[C@H](CO)[C@@H](O[C@H]3O[C@@H](CN)[C@@H](O)[C@H](O)[C@H]3N)[C@H]2O)[C@H]1O [1/7] |
